Source: ChEMBL document CHEMBL2417402, “Development and therapeutic implications of selective histone deacetylase 6 inhibitors” (J Med Chem, 2013)

Assays:
Histone deacetylase 5 = Histone deacetylase 5 (Homo sapiens, UniProt Q9UQL6); experiment: Inhibition of HDAC5 (unknown origin)
Histone deacetylase 1 [1] = target: T1, Histone deacetylase 1 (Homo sapiens, UniProt Q13547); experiment: Inhibition of HDAC1 (unknown origin)
Histone deacetylase 2 [2] = target: T2, Histone deacetylase 2 (Homo sapiens, UniProt Q92769); experiment: Inhibition of HDAC2 (unknown origin)
T2 sequence (Q92769 whole entry): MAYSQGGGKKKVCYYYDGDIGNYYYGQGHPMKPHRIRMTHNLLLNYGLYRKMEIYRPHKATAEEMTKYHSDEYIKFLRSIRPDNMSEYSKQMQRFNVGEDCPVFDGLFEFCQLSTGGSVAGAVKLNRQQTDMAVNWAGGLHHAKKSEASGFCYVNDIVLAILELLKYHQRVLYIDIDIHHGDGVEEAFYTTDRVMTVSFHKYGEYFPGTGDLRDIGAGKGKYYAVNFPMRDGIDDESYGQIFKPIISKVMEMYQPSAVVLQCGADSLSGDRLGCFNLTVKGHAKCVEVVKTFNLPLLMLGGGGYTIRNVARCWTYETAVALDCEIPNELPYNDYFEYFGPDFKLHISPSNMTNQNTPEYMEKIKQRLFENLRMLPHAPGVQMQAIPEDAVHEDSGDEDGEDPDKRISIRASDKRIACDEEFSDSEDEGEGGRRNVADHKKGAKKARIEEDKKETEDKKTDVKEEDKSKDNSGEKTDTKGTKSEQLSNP

Histone deacetylase 4 = Histone deacetylase 4 (Homo sapiens, UniProt P56524); experiment: Inhibition of HDAC4 (unknown origin)
Histone deacetylase 4, sequence (P56524 whole entry): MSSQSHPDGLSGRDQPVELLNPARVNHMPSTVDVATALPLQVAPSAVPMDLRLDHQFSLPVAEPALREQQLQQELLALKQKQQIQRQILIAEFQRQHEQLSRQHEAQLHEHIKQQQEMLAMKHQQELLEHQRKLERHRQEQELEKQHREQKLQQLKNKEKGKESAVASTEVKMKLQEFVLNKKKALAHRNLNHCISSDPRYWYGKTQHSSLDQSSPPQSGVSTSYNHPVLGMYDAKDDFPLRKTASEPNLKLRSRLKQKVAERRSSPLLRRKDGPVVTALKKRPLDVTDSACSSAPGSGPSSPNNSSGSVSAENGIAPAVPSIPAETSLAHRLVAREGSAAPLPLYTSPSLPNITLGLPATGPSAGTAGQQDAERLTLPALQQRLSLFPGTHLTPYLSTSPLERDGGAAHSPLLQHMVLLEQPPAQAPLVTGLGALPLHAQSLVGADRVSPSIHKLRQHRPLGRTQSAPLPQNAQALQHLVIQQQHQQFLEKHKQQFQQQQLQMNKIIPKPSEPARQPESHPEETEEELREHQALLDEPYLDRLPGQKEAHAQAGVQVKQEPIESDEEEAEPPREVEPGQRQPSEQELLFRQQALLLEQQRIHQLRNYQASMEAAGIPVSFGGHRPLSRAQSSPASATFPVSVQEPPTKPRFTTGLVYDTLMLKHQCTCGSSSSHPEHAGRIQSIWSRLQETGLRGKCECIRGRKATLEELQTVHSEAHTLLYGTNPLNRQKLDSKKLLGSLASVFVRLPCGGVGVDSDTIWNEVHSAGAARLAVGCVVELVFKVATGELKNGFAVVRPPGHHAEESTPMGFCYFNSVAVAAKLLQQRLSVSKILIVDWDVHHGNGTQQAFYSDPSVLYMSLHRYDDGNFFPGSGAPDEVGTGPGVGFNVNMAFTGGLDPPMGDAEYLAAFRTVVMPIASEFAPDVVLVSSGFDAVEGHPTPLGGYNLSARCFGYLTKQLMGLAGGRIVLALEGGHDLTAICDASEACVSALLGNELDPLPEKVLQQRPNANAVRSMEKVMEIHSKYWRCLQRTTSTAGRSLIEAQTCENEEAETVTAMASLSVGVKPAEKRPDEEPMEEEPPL

[3] = target: T3, Protein deacetylase HDAC6 (Homo sapiens, UniProt Q9UBN7); experiment: Inhibition of HDAC6 (unknown origin)
T3 sequence (Q9UBN7 whole entry): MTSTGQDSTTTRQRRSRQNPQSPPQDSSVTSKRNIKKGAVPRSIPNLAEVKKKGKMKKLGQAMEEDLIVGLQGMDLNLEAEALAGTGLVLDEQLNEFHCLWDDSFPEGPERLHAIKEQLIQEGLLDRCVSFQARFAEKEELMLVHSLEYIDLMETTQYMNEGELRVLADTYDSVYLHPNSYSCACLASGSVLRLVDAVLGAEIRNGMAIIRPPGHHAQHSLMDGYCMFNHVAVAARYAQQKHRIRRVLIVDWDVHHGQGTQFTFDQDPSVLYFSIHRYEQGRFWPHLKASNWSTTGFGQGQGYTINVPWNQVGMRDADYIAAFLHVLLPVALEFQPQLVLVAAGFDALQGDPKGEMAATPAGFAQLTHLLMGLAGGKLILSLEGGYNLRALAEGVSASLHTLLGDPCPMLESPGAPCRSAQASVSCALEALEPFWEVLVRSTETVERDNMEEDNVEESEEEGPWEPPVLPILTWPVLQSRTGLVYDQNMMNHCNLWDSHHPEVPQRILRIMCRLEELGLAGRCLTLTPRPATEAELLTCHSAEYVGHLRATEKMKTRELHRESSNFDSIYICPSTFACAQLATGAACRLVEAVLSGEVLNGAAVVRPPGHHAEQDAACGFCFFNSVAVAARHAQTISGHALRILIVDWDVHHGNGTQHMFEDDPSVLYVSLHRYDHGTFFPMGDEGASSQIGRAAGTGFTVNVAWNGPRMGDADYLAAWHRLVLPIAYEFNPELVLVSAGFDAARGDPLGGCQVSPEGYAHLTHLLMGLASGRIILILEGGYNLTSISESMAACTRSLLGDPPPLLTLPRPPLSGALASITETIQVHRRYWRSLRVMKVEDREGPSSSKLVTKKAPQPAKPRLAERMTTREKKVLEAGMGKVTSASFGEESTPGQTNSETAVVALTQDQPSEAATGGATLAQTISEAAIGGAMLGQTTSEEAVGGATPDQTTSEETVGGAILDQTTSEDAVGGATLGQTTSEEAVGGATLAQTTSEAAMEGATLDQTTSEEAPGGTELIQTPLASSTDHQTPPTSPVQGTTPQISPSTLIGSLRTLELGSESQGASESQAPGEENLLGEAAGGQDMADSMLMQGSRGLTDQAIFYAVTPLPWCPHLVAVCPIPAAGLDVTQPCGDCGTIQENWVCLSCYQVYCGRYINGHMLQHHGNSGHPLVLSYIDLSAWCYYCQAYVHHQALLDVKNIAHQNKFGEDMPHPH

Histone deacetylase 3 [4] = target: T4, Histone deacetylase 3 (Homo sapiens, UniProt O15379); experiment: Inhibition of HDAC3 (unknown origin) using carboxyfluorescein (FAM)-labeled acetylated peptide as substrate after 17 hrs by fluorescence-based electrophoretic assay
T4 sequence (O15379 whole entry): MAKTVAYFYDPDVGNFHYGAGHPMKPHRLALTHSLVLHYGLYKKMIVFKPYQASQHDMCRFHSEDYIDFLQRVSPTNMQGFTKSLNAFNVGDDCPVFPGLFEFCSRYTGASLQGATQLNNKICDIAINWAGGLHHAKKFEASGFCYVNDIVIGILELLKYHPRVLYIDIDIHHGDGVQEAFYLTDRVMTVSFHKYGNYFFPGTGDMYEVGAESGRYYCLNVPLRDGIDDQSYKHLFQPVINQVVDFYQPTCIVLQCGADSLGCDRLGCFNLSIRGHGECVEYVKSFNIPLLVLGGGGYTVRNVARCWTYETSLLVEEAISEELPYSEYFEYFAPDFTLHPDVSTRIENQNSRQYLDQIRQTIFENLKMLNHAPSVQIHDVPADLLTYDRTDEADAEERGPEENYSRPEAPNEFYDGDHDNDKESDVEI

Histone deacetylase 2 [5] = target: T2, Histone deacetylase 2; experiment: Inhibition of HDAC2 (unknown origin) using carboxyfluorescein (FAM)-labeled acetylated peptide as substrate after 17 hrs by fluorescence-based electrophoretic assay
Histone deacetylase 1 [6] = target: T1, Histone deacetylase 1; experiment: Inhibition of HDAC1 (unknown origin) using carboxyfluorescein (FAM)-labeled acetylated peptide as substrate after 17 hrs by fluorescence-based electrophoretic assay
[7] = target: T5, Polyamine deacetylase HDAC10 (Homo sapiens, UniProt Q969S8); experiment: Inhibition of HDAC10 (unknown origin)
T5 sequence (Q969S8 whole entry): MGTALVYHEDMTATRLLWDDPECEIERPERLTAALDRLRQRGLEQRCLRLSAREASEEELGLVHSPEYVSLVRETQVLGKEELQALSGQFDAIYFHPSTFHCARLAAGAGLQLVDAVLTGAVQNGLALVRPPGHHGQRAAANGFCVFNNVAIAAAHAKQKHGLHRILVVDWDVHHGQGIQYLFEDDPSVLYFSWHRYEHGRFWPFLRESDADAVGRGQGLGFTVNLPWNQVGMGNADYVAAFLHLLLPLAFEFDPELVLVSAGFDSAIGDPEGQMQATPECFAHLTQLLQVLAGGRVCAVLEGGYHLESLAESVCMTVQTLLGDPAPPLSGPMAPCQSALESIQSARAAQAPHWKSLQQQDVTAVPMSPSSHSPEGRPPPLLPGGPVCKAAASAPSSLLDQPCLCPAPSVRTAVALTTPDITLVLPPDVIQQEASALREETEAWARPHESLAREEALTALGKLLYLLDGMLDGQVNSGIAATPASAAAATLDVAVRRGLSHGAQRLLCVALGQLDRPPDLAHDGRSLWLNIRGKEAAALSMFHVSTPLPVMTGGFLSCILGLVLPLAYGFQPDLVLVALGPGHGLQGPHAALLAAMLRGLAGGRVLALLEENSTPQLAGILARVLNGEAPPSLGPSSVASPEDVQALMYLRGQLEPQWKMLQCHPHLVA

Histone deacetylase 8 = target: T6, Histone deacetylase 8 (Homo sapiens, UniProt Q9BY41); experiment: Inhibition of HDAC8 (unknown origin); conditions: read-out: Kd(app)
T6 sequence (Q9BY41 whole entry): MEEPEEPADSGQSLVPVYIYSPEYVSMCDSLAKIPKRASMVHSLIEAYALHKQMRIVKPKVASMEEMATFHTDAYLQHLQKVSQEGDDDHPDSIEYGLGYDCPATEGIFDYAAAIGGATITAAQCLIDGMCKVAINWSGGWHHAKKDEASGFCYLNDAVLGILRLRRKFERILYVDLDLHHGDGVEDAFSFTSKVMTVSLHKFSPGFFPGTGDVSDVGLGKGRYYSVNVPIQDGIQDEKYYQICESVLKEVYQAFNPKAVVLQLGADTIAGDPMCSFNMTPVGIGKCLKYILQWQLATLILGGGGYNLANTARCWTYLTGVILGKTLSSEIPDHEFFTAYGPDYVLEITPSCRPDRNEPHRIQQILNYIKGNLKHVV

Histone deacetylase 3 [8] = target: T4, Histone deacetylase 3; experiment: Inhibition of HDAC3 (unknown origin); conditions: read-out: Kd(app)

T1 sequence (Q13547 whole entry): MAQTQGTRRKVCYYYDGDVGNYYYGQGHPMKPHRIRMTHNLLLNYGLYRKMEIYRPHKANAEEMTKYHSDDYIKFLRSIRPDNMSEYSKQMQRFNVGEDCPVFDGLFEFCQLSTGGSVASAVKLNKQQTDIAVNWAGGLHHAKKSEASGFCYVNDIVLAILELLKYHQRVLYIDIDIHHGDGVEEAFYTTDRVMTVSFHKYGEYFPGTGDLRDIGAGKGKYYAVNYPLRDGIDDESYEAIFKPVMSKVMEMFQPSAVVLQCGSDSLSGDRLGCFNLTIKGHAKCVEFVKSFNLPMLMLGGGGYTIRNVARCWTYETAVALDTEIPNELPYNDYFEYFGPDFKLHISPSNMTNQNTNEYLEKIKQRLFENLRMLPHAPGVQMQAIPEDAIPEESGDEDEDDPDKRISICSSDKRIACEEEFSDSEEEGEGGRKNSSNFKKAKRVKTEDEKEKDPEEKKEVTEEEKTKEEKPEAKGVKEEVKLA
Histone deacetylase 5, sequence (Q9UQL6 whole entry): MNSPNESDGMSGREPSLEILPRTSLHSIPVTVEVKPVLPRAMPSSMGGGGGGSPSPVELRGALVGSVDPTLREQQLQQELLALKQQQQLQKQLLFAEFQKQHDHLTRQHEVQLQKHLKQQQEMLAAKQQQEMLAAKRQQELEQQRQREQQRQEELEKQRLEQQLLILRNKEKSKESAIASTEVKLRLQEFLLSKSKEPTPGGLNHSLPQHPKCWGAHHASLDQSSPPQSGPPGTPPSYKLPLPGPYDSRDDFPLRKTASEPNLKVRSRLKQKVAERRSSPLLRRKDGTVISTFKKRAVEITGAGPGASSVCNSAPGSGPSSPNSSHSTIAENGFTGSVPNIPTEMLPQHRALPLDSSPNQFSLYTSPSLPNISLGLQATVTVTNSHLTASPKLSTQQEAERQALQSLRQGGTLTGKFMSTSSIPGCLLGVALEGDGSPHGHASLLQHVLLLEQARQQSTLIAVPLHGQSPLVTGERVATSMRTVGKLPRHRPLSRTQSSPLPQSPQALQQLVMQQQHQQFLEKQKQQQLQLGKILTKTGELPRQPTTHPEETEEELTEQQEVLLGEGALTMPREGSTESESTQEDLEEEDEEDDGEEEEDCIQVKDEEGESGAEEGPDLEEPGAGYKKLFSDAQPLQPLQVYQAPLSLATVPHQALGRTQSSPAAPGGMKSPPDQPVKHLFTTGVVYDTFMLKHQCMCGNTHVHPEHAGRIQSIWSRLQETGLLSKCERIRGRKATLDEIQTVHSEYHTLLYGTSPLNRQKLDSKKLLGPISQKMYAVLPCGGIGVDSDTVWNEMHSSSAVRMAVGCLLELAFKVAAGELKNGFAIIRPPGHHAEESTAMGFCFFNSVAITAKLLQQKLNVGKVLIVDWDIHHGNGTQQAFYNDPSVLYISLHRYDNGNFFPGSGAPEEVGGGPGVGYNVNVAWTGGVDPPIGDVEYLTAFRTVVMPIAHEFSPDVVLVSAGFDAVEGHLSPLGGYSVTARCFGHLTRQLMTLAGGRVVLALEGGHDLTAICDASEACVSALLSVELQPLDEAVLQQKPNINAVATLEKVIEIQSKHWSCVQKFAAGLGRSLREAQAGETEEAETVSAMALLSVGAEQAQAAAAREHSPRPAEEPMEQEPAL

With `Cc1onc(-c2ccccc2)c1C(=O)NCCCCCNC(=O)CS` the IC50 (Histone deacetylase 5) was 15 µM, the IC50 (Histone deacetylase 1 [1]) was 5.7 µM and the IC50 (Histone deacetylase 2 [2]) was 28 µM. The IC50 (Histone deacetylase 4) was 10 µM and the IC50 [3] was 0.26 µM.

`Cc1onc(-c2ccccc2)c1C(=O)NCCCCCNC(=O)[C@@H](C)S` was tested, and the IC50 (Histone deacetylase 5) was greater than 30 µM, the IC50 (Histone deacetylase 1 [1]) was greater than 30 µM and the IC50 (Histone deacetylase 2 [2]) was greater than 30 µM. The IC50 (Histone deacetylase 4) was greater than 30 µM and the IC50 [3] was 0.28 µM.

For `COC(=O)[C@@H](Cc1ccccn1)NC(=O)CCCCCCCC(=O)NO`, the IC50 (Histone deacetylase 1 [1]) was 82.6 µM and the IC50 [3] was 4.01 µM.

In the case of `COC(=O)[C@H](Cc1ccccn1)NC(=O)CCCCCCCC(=O)NO`, the IC50 (Histone deacetylase 1 [1]) is reported as 67.3 µM and the IC50 [3] is reported as 4.06 µM.

Molecule `CC(C)(C)OC(=O)Nc1ccc(-c2cc(C(=O)NCCCCCCC(=O)NO)no2)cc1` has an IC50 (Histone deacetylase 3 [4]) of 0.19 µM, an IC50 (Histone deacetylase 2 [5]) of 0.093 µM and an IC50 (Histone deacetylase 1 [6]) of 0.0127 µM.

Work on `CCCCOc1ccc(CC(=O)NO)cc1` [BUFEXAMAC] yielded a Kd ([7]; read-out: Kd(app)) of 12.3 µM, a Kd (Histone deacetylase 8) of 235 µM and a Kd (Histone deacetylase 1 [1]; read-out: Kd(app)) greater than 1000 µM. The Kd (Histone deacetylase 2 [2]; read-out: Kd(app)) was greater than 1000 µM, the Kd (Histone deacetylase 3 [8]) was 341 µM and the Kd ([3]; read-out: Kd(app)) was 10.7 µM.

`O=C(CCCCCCNC(=O)c1cnc(N(c2ccccc2)c2ccccc2)nc1)NO` [RICOLINOSTAT] gave an IC50 [7] greater than 10 µM.
